From patent US8383816B2, “Aryl-quinolyl compounds and their use” (Cancer Research Technology Limited, priority 2008, dated 2013)
Values joined by “and” are separate entries in the source; they are usually repeats but may differ in a detail not shown here. Equal values may be shown once.

Key:
pERK = experiment: Cell Based Phospho-ERK Assay; details: 6 h, cells incubated with test compound for 6 hours
Experimental: Biological Methods—Cell Based Phosho-ERK Assay
Compounds were assessed using a cell-based assay which was performed according to the following protocol.
Plate out 16,000 cells/well in 99 μL medium in a 96-well plate.
1. Add 1 μL inhibitor to the cells […].
2. Incubate the cells with test compound for 6 hours at 37° C.
3. Aspirate off the solution from all of the wells.
4. Fixate the cells with 100 μL 4% formaldehyde/0.25% Triton X-100 PBS per well.
5. Incubate the plate for 1 hour at 4° C.
6. Aspirate off the fixing solution and add 300 μL TBS per well.
7. Leave the plate overnight at 4° C.
1. Wash the plate 2× with 200 μL PBS per well.
2. Block with 100 μL 5% dried milk in TBS.
3. Incubate the plate for 20 minutes at 37° C.
4. Wash the plate 2× with 0.1% tween/H2O.
5. Add 50 μL of 3 μg/mL primary antibody pERK (Sigma M8159), diluted in 5% milk powder/TBS, to each well.
6. Incubate the plate for 2 hours at 37° C.
7. Wash the plate 3× with 0.1% tween/H2O.
8. Add 50 μL of 0.45 μg/mL secondary Europium-labelled anti-mouse antibody (Perkin Elmer) to each well.
9. Incubate the plate for 1 hour at 37° C.
10. Wash the plate 3× with 0.1% tween/H2O.
11. Add 100 μL enhancement solution (Perkin Elmer) to each well.
12. Leave the plate for approximately 10 minutes at room temperature before gently shaking the plate.
13. Read Europium Time Resolved Fluorescence in Victor2.
14. Wash the plate 2× with 0.1% tween/H2O.
15. Measure the protein concentration with BCA (Sigma) by adding 200 μL of solution per well.
16. Incubate the plate for 30 minutes at 37° C.
17. Read absorbance levels at 570 nm in a plate reader.
Note that Europium counts are normalised for protein levels by dividing counts by absorbance.
(§1) Values for the blank (no cells) are subtracted from all values. The DMSO controls are set as 100% activity and assay points (the response) are calculated as a percentage of the DMSO control. Data are plotted using Graphpad Prism software and a non-linear regression line is calculated using a variable slope sigmoidal dose-response equation (Y=Bottom+(Top−Bottom)/(1+10^((LogEC50−X)*HillSlope)) where X is the logarithm of concentration. Y is the response). The IC50 generated by this procedure is the concentration of the drug that produces a percentage control fluorescence value midway between the saturation, and zero-effect plateaus. Three independent assays are usually performed and the mean IC50 is reported.

WM266.4 melanoma cells = experiment: SRB Cell Proliferation Assay (SRB GI50); format: cell-based; details: Homo sapiens, WM 266-4, 144 h, 6 days growth
Experimental: Biological Methods—SRB Cell Proliferation Assay (SRB GI50)
Cultures of WM266.4 melanoma cells are routinely cultured in DMEM/10% foetal bovine serum, at 37° C., in 5% CO2 water saturated atmosphere. Cultures are maintained in exponential growth phase by sub-culturing before having become confluent (3-5 day intervals). Single cell suspensions are prepared by harvesting an 80 cm^2 tissue culture flask with 5 mL commercial trypsin EDTA. After 5 minutes, the detached cells are mixed with 5 mL fully complemented culture medium and centrifugally pelleted (1000 rpm for 7 minutes). After aspirating the supernatant, the cell pellet is re-suspended in 10 mL fresh medium and the cells fully disaggregated by drawing the whole volume up/down 5 times through a 19-gauge needle. The concentration of the cells is determined using a haemocytometer (1/10 dilution). A suitable volume to give at least a 2-fold excess for the number of tests being conducted, typically 100-200 mL, is prepared by diluting the cell suspension to 10,000/mL, and 100 μL/well dispensed into 96 well plates using a programmable 8-channel peristaltic pump, giving 1000 cells/well, leaving column 12 blank. The plates are returned to the incubator for 24 hours to allow the cells to re-attach.
The compounds being tested are prepared at 20 mM in dimethylsulphoxide. Aliquots (200 μL) are diluted into 20 mL culture medium giving 200 μM, and 10 serial dilutions of 3× performed by transferring 5 mL to 10 mL. Aliquots (100 μL) of each dilution are added to the wells, using an 8-channel pipettor, thus performing a final further 2× dilution, and giving doses ranging from 100 μM to 0.005 μM. Column 11 receives plain culture medium only. Each compound is tested in quadruplicate, each replicate being the average of four wells, and two plates per compound.
After a further 6 days growth, the plates are emptied, and the cells are fixed in 10% trichloroacteic acid for 10 minutes on ice. After thorough rinsing in running tap water, the plates are dried, and stained by adding 50 μL of a solution of 0.1% sulphorhodamine-B in 1% acetic acid, for 10 minutes at room temperature. The stain is poured out and the plates thoroughly rinsed under a stream of 1% acetic acid, thus removing unbound stain, and dried. The bound stain is taken into solution by addition of 150 μL Tris buffer pH 8, followed by 10 minutes on a plate-shaker (approximately 500 rpm). The absorbance at 540 nm in each well (being proportional to the number of cells present) is determined using a plate reader.
After averaging the results in rows A-D and E-H, the blank value (row 12) is subtracted, and results expressed as percentage of the untreated value (row 11). […] The GI50 generated by this procedure is the concentration of the drug that produces a percentage control A540 midway between the saturation, and zero-effect plateaus.

B-RAF = B-RAF (Homo sapiens, UniProt P15056, V600E); experiment: DELFIA Kinase Assay; format: biochemical; details: 100 μM ATP
Experimental: Biological Methods—DELFIA Kinase Assay
Compounds were assessed by a kinase assay performed according to the following protocol.
DELFIA Kinase Buffer (DKB):
DKB1 (DKB with B-RAF and MEK Protein):
Combine 4950 μL of DKB and 50 μL of 2.5 mg/ml GST-MEK stock (to give […] of MEK per 40 μL). Then add 22.5 μL of B-RAF to give ˜0.2 μL of B-RAF per 40 μL.
DKB2 (DKB with MEK Protein):
Combine 4950 μL of DKB and 50 μL of 2.5 mg/ml GST-MEK stock (to give 1 mg of MEK per 40 μL). Use 500 μL of this for the blow out (BO) and the empty vector (EV) control.
100 mM stock, dilute to 500 μM to give 100 μM final concentration in assay.
Inhibitors (Test Compounds):
Phospho-MEK½ CST #9121S diluted 1:1000 in DELFIA assay buffer (AB). Preincubate antibody in the AB for 30 minutes at room temperature prior to use.
Anti-rabbit-Eur labelled secondary Perkin Elmer #AD0105 diluted 1:1000 in DELFIA assay buffer (AB). Preincubate antibody in the AB for 30 minutes at room temperature prior to use. (Primary and secondary antibodies were incubated together.)
1. Preblock wells with 5% milk in TBS for 1 hour.
2. Wash wells with 3× with 200 μL TBS.
3. Plate out 40 μL of DKB1 for all inhibitors (test compounds), DMSO control, and optionally other control compounds.
4. Plate out 40 μL of DKB2 for BO and EV wells.
5. Add inhibitors (test compounds) at 0.5 μL per well according to desired plate layout.
6. Add 0.5 μL DMSO to vehicle control wells.
7. Add 2 μL of B-RAF to BO and EV wells.
8. Pre-incubate with inhibitors (test compounds) for 10 minutes at room temperature with shaking.
9. Add 10 μL of 500 μM ATP stock, in DKB, to give 100 μM assay concentration.
10. Seal plates with TopSeal and incubate at room temperature with shaking for 45 minutes.
11. Wash plates 3× with 200 μL 0.1% Tween20/Water to terminate reaction.
12. Add 50 μL per well of antibody mix and incubate for 1 hour at room temperature with shaking.
13. Wash plates 3× with 200 μL 0.1% Tween20/Water.
14. Add 100 μL DELFIA enhancement solution per well, cover in foil, and incubate at room temperature for 30 minutes with shaking.
15. Read on Victor using Europium protocol.
as §1, with “(Empty Vector)” for “(no cells)”

Chain of B-RAF (P15056 whole entry V600E): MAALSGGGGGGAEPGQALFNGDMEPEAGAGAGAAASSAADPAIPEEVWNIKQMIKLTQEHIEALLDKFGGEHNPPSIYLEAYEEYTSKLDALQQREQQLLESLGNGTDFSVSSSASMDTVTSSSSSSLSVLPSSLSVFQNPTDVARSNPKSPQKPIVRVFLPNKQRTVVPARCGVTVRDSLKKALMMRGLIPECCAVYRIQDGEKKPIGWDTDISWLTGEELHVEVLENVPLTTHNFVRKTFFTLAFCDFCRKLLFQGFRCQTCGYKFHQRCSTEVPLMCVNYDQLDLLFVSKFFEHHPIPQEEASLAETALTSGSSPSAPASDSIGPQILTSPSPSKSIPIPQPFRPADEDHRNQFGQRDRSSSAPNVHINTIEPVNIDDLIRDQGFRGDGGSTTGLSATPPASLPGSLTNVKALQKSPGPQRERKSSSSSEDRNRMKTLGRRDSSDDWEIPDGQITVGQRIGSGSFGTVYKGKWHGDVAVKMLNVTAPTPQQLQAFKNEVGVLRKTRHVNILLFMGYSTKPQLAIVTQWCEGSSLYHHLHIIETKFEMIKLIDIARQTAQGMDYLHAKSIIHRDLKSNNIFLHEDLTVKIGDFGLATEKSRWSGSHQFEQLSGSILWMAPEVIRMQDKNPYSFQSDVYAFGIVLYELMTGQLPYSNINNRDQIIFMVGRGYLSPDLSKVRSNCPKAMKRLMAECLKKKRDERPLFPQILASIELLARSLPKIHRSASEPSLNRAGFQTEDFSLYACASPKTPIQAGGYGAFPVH

IC50 (pERK) | GI50 (WM266.4 melanoma cells) | IC50 (B-RAF) | SMILES
≤ 10 µM | ≤ 10 µM | ≤ 1 µM | O=C(Nc1cc(C(F)(F)F)ccc1F)Nc1ccc(Oc2ccnc3[nH]c(=O)cnc23)c2cccnc12 [BB-005, 5-[(8-Amino-quinolinyl-5-oxy)carbonylamino-5-(2-fluoro-5-trifluoromethyl-phenyl)]-pyridin-[2,3]pyrazin-2-one]
≤ 10 µM | ≤ 10 µM | ≤ 1 µM | C#CCn1nc(C(C)(C)C)cc1NC(=O)Nc1ccc(Oc2ccnc3[nH]c(=O)cnc23)c2cccnc12 [BB-012]
≤ 10 µM | ≤ 10 µM | ≤ 1 µM | O=C(Nc1cc(C(F)(F)F)ccc1F)Nc1ccc(Oc2ccnc3ncc(=O)[nH]c23)c2cccnc12 [BB-004, 5-[(8-Amino-quinolinyl-5-oxy)carbonylamino-5-(2-fluoro-5-trifluoromethyl-phenyl)]-pyridin-[2,3]pyrazin-3-one]
≤ 10 µM | ≤ 10 µM |  | Cc1ccc(-n2nc(C(C)(C)C)cc2NC(=O)Nc2ccc(Oc3ccnc4[nH]c(=O)c(C)nc34)c3cccnc23)cc1 [BB-002, 5-[(8-Amino-quinolinyl-5-oxy)carbonylamino-5-(1-N-p-tolyl-3-t-butyl-imidazolyl)]-pyridin-[2,3]-3-methylpyrazin-2-one]
≤ 10 µM | ≤ 10 µM |  | CC(C)(C)c1cc(NC(=O)Nc2ccc(Oc3ccnc4ncc(=O)[nH]c34)c3cccnc23)n(-c2ccccc2)n1 [BB-010]

Second part, the compound before the results:

SMILES | IC50 (pERK) | GI50 (WM266.4 melanoma cells) | IC50 (B-RAF)
Cn1c(=O)[nH]c2c(Oc3ccc(NC(=O)Nc4cccc(C(C)(C)C)c4)c4ncccc34)ccnc21 [AA-018, 5-[(8-Amino-quinolinyl-5-oxy)carbonylamino-3-(t-butyl-phenyl)]-pyridin-[2,3]1-N-methylimidazol-2-one] | ≤ 10 µM | ≤ 10 µM | ≤ 1 µM
Cn1c(=O)[nH]c2c(Oc3ccc(NC(=O)Nc4ccc(Cl)c(C(F)(F)F)c4)c4ncccc34)ccnc21 [AA-014, 5-[(8-Amino-quinolinyl-5-oxy)carbonylamino-3-(2-trifluoromethyl-3-chloro-phenyl)]-pyridin-[2,3]-N-methylimidazol-2-one] | ≤ 10 µM | ≤ 10 µM | ≤ 1 µM
Cc1ccc(-n2nc(C(C)(C)C)cc2NC(=O)Nc2ccc(Oc3ccnc4c3[nH]c(=O)n4C)c3cccnc23)cc1 [AA-015] | ≤ 10 µM | ≤ 10 µM | 
Cn1c(=O)[nH]c2c(Oc3ccc(NC(=O)Nc4cc(C(C)(C)C)nn4-c4ccccc4)c4ncccc34)ccnc21 [AA-016] | ≤ 10 µM | ≤ 10 µM | 
Cc1ccc(-n2nc(C(C)(C)C)cc2NC(=O)Nc2ccc(Oc3ccnc4[nH]c(=O)n(C)c34)c3cccnc23)cc1 [AA-011, 4-[(5-Oxy-quinolinyl-8-amino)carbonyl-amino-(1-N-p-tolyl-3-t-butyl-pyrazol-5-yl)]-pyridin-5-N-methyl,6-imidazolone] | ≤ 10 µM | ≤ 10 µM | 
Cn1c(=O)[nH]c2nccc(Oc3ccc(NC(=O)Nc4cc(C(C)(C)C)nn4-c4ccccc4)c4ncccc34)c21 [AA-012, 4-[(5-Oxy-quinolinyl-8-amino)carbonyl-amino-(1-N-phenyl-3-t-butyl-pyrazol-5-yl)]-pyridin-5-N-methyl,6-imidazolone] |  |  | ≤ 1 µM and 1 µM
CC(C)(C)c1cc(NC(=O)Nc2ccc(Oc3ccnc4[nH]c(=O)[nH]c34)c3ncccc23)n(-c2ccccc2)n1 [AA-006, 4-[(8-Oxy-quinolinyl-5-amino)carbonyl-amino-(1-N-phenyl-3-t-butyl-pyrazol-5-yl)]-pyridin-5,6-imidazolone] | ≤ 10 µM | ≤ 10 µM | 
O=C(Nc1cc(C(F)(F)F)ccc1F)Nc1ccc(Oc2ccnc3[nH]c(=O)[nH]c23)c2ncccc12 [AA-001, 4-[(5-Amino-quinolinyl-8-oxy)carbonylamino-(2-fluoro-5-trifloromethylphenyl)]-pyridin-5,6-imidazolone] |  | ≤ 10 µM | ≤ 1 µM
Cn1c(=O)[nH]c2c(Oc3ccc(NC(=O)Nc4cc(C(F)(F)F)ccc4F)c4ncccc34)ccnc21 [AA-013, 5-[(8-Amino-quinolinyl-5-oxy)carbonylamino-3-(2-fluoro-5-trifluoromethyl-phenyl)]-Pyridin-[2,3]-N-methylimidazol-2-one] | ≤ 10 µM |  | ≤ 1 µM
O=C(Nc1ccc(Cl)c(C(F)(F)F)c1)Nc1ccc(Oc2ccnc3[nH]c(=O)[nH]c23)c2ncccc12 [AA-002, 4-[(8-Oxy-quinolinyl-5-amino)carbonylamino-(3-trifluoromethyl-4-chloro-phenyl)]-pyridin-5,6-imidazolone] |  |  | ≤ 1 µM
